# From patent US20100298141A1, “SUBSTITUTED PYRIDINE N-OXIDE HERBICIDES” (E. I. DU PONT DE NEMOURS AND COMPANY, priority 2007, published 2010)
# Tests used:
# Goosegrass = assay: Test C pre-/postemergence test; type: in vivo, Eleusin indica
# Summary of the method: (§1)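 Seeds were planted and treated preemergence with test chemical in a non-phytotoxic solvent mixture containing surfactant. Postemergence applications of the same formulation went onto plants 2 to 18 cm tall (1- to 4-leaf stage). A dash marks no test result.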
# duck salad = assay: Test C flooded paddy test; type: in vivo, Heteranthera limosa; conditions: Flood
# Summary of the method: (§2)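 Under a constant 3 cm flood, test compounds went directly into the paddy water. Following 13 to 15 days of greenhouse growth, treated species and controls were compared by eye.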
# yellow nutsedge = assay: Test C pre-/postemergence test; type: in vivo, Cyperus esculentus
# Summary of the method: as §1
# corn = assay: Test C pre-/postemergence test; type: in vivo, Zea mays
# Summary of the method: as §1
# green foxtail = assay: Test C pre-/postemergence test; type: in vivo, Setaria viridis
# Summary of the method: as §1
# eastern black nightshade = assay: Test C pre-/postemergence test; type: in vivo, Solanum ptycanthum
# Summary of the method: as §1
# Italian ryegrass = assay: Test C pre-/postemergence test; type: in vivo, Lolium multiflorum
# Summary of the method: as §1
# redroot pigweed = assay: Test A pre-/postemergence greenhouse test; type: in vivo, Amaranthus retroflexus; conditions: for Pigweed plant response rating: 0 to 100 scale; for Plant response rating, Pigweed: 0 to 100 scale where 0 is no effect and 100 is complete control
# Summary of the method: (§3)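 Herbicidal effect is a visual injury score given about ten days post-treatment by comparison with untreated controls. Preemergence plots received a directed spray onto sown loam–sand soil; postemergence plants, at the one- to two-leaf stage and 2–10 cm tall, were sprayed at the same time.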
# crabgrass = assay: Test A pre-/postemergence greenhouse test; type: in vivo, Digitaria sanguinalis; conditions: for Crabgrass, Large plant response rating: 0 to 100 scale; for Plant response rating, Crabgrass, Large: 0 to 100 scale where 0 is no effect and 100 is complete control
# Summary of the method: as §3
# umbrella sedge = assay: Test C flooded paddy test; type: in vivo, Cyperus difformis; conditions: Flood
# Summary of the method: as §2
# morningglory = assay: Test A pre-/postemergence greenhouse test; type: in vivo, Ipomoea spp.; conditions: for Morningglory plant response rating: 0 to 100 scale; for Plant response rating, Morningglory: 0 to 100 scale where 0 is no effect and 100 is complete control
# Summary of the method: as §3
# wild oat = assay: Test C pre-/postemergence test; type: in vivo, Avena fatua
# Summary of the method: as §1
# [1] = test system: common (oilseed) sunflower; assay: Test C pre-/postemergence test; type: in vivo, Helianthus annuus
# Summary of the method: as §1
# blackgrass = assay: Test C pre-/postemergence test; type: in vivo, Alopecurus myosuroides
# Summary of the method: as §1
# woolly cupgrass = assay: Test C pre-/postemergence test; type: in vivo, Eriochloa villosa
# Summary of the method: as §1
# common ragweed = assay: Test C pre-/postemergence test; type: in vivo, Ambrosia elation
# Summary of the method: as §1
# wheat = assay: Test C pre-/postemergence test; type: in vivo, Triticum aestivum
# Summary of the method: as §1
# [2] = 31 g ai/ha, Preemergence, scale 0 to 100
# [3] = 62 g ai/ha, preemergence, scale 0 (no effect) to 100 (complete control)
# [4] = preemergence, 125 g ai/ha, scale 0 (no effect) to 100 (complete control)
# [5] = 31 g ai/ha, scale 0 to 100 (0 no effect, 100 complete control)
# [6] = 62 g ai/ha, scale 0 to 100, 0 no effect, 100 complete control, 13 to 15 days
# [7] = 125 g ai/ha, scale 0 to 100, 0 no effect, 100 complete control, 13 to 15 days
# [8] = 250 g ai/ha, scale 0 to 100 (0 no effect, 100 complete control)
# [9] = Postemergence, 125 g ai/ha, 0 is no effect, 100 is complete control
# [10] = Postemergence, 500 g ai/ha, 0 is no effect, 100 is complete control
# [11] = Preemergence, 125 g ai/ha, 0 no effect, 100 complete control
# [12] = 62 g ai/ha, Preemergence, scale 0 to 100
# [13] = 125 g ai/ha, preemergence, scale 0 (no effect) to 100 (complete control)
# [14] = Preemergence, 31 g ai/ha, scale 0 to 100 (0 no effect, 100 complete control)
# [15] = preemergence, 250 g ai/ha, scale 0 (no effect) to 100 (complete control)
# [16] = 62 g ai/ha, scale 0 to 100 (0 no effect, 100 complete control)
# [17] = 250 g ai/ha, scale 0 to 100, 0 no effect, 100 complete control, 13 to 15 days
smiles,measurement,setting,value
Cn1nc(C(F)(F)F)c(C[S+]([O-])c2cccc[n+]2[O-])c1Cl (stereo not shown) [Compound 8],Goosegrass plant response rating,Goosegrass; [2],98
same,Goosegrass plant response rating,Goosegrass; [3],100
same,"Plant response rating (0 to 100), Goosegrass","Goosegrass; Preemergence, 250 g ai/ha",100
same,Goosegrass plant response rating,Goosegrass; [4],100
same,"Plant response rating, Ducksalad",duck salad; [5],0
same,"Plant response rating, Ducksalad",duck salad; [6],0
same,"Plant response rating, Ducksalad",duck salad; [7],50
same,"Plant response rating, Ducksalad",duck salad; [8],90
same,"Nutsedge, Yellow plant response rating",yellow nutsedge; [2],60
same,"Nutsedge, Yellow plant response rating",yellow nutsedge; [3],80
same,"Plant response rating (0 to 100), Nutsedge, Yellow","yellow nutsedge; Preemergence, 250 g ai/ha",100
same,"Nutsedge, Yellow plant response rating",yellow nutsedge; [4],100
same,Corn plant response rating,corn; [2],60
same,Corn plant response rating,corn; [3],80
same,"Plant response rating (0 to 100), Corn","corn; Preemergence, 250 g ai/ha",98
same,Corn plant response rating,corn; [4],95
same,"Foxtail, Green plant response rating",green foxtail; [2],100
same,"Foxtail, Green plant response rating",green foxtail; [3],100
same,"Plant response rating (0 to 100), Foxtail, Green","green foxtail; Preemergence, 250 g ai/ha",100
same,"Foxtail, Green plant response rating",green foxtail; [4],100
same,Nightshade plant response rating,eastern black nightshade; [2],80
same,Nightshade plant response rating,eastern black nightshade; [3],85
same,"Plant response rating (0 to 100), Nightshade","eastern black nightshade; Preemergence, 250 g ai/ha",100
same,Nightshade plant response rating,eastern black nightshade; [4],100
same,"Ryegrass, Italian plant response rating",Italian ryegrass; [2],0
same,"Ryegrass, Italian plant response rating",Italian ryegrass; [3],50
same,"Plant response rating (0 to 100), Ryegrass, Italian","Italian ryegrass; Preemergence, 250 g ai/ha",95
same,"Ryegrass, Italian plant response rating",Italian ryegrass; [4],70
same,Pigweed plant response rating,redroot pigweed; [9],20
same,Pigweed plant response rating,redroot pigweed; [10],60
same,Pigweed plant response rating,redroot pigweed; [11],100
same,"Plant response rating, Pigweed","redroot pigweed; Preemergence, 500 g ai/ha",100
same,"Crabgrass, Large plant response rating",crabgrass; [9],80
same,"Crabgrass, Large plant response rating",crabgrass; [10],90
same,"Crabgrass, Large plant response rating",crabgrass; [11],90
same,"Plant response rating, Crabgrass, Large","crabgrass; Preemergence, 500 g ai/ha",100
same,"Plant response rating, Sedge, Umbrella",umbrella sedge; [5],0
same,"Plant response rating, Sedge, Umbrella",umbrella sedge; [6],0
same,"Plant response rating, Sedge, Umbrella",umbrella sedge; [7],85
same,"Plant response rating, Sedge, Umbrella",umbrella sedge; [8],100
same,Morningglory plant response rating,morningglory; [9],60
same,Morningglory plant response rating,morningglory; [10],70
same,Morningglory plant response rating,morningglory; [11],90
same,"Plant response rating, Morningglory","morningglory; Preemergence, 500 g ai/ha",90
same,"Oat, Wild plant response rating",wild oat; [2],0
same,"Oat, Wild plant response rating",wild oat; [3],20
same,"Plant response rating (0 to 100), Oat, Wild","wild oat; Preemergence, 250 g ai/ha",60
same,"Oat, Wild plant response rating",wild oat; [4],40
same,Sunflower plant response rating,[1]; [3],30
same,"Plant response rating (0 to 100), Sunflower","[1]; Preemergence, 250 g ai/ha",100
same,Sunflower plant response rating,[1]; [4],60
same,Blackgrass plant response rating,blackgrass; [2],0
same,Blackgrass plant response rating,blackgrass; [3],0
same,"Plant response rating (0 to 100), Blackgrass","blackgrass; Preemergence, 250 g ai/ha",100
same,Blackgrass plant response rating,blackgrass; [4],100
same,"Cupgrass, Woolly plant response rating",woolly cupgrass; [2],70
same,"Cupgrass, Woolly plant response rating",woolly cupgrass; [3],98
same,"Plant response rating (0 to 100), Cupgrass, Woolly","woolly cupgrass; Preemergence, 250 g ai/ha",100
same,"Cupgrass, Woolly plant response rating",woolly cupgrass; [4],100
same,Ragweed plant response rating,common ragweed; [2],50
same,Ragweed plant response rating,common ragweed; [3],60
same,"Plant response rating (0 to 100), Ragweed","common ragweed; Preemergence, 250 g ai/ha",90
same,Ragweed plant response rating,common ragweed; [4],60
same,Wheat plant response rating,wheat; [3],30
same,"Plant response rating (0 to 100), Wheat","wheat; Preemergence, 250 g ai/ha",80
same,Wheat plant response rating,wheat; [4],50
CCc1cc[n+]([O-])c([S+]([O-])Cc2c(C(F)(F)F)nn(C)c2OCC(F)(F)F)c1 (stereo not shown) [Compound 59],Goosegrass plant response rating,Goosegrass; [12],100
same,Goosegrass plant response rating,Goosegrass; [13],100
same,"Plant response rating, Goosegrass",Goosegrass; [14],100
same,Goosegrass plant response rating,Goosegrass; [15],100
same,"Plant response rating, Ducksalad",duck salad; [16],40
same,"Plant response rating, Ducksalad",duck salad; [17],90
same,"Nutsedge, Yellow plant response rating",yellow nutsedge; [12],30
same,"Nutsedge, Yellow plant response rating",yellow nutsedge; [13],85
same,"Plant response rating, Nutsedge, Yellow",yellow nutsedge; [14],0
same,"Nutsedge, Yellow plant response rating",yellow nutsedge; [15],95
same,Corn plant response rating,corn; [12],45
same,Corn plant response rating,corn; [13],100
same,"Plant response rating, Corn",corn; [14],25
same,Corn plant response rating,corn; [15],100
same,"Foxtail, Green plant response rating",green foxtail; [12],95
same,"Foxtail, Green plant response rating",green foxtail; [13],100
same,"Plant response rating, Foxtail, Green",green foxtail; [14],0
same,"Foxtail, Green plant response rating",green foxtail; [15],100
same,Nightshade plant response rating,eastern black nightshade; [12],85
same,Nightshade plant response rating,eastern black nightshade; [15],85
same,"Ryegrass, Italian plant response rating",Italian ryegrass; [12],55
same,"Ryegrass, Italian plant response rating",Italian ryegrass; [13],80
same,"Plant response rating, Ryegrass, Italian",Italian ryegrass; [14],30
same,"Ryegrass, Italian plant response rating",Italian ryegrass; [15],95
same,"Plant response rating, Pigweed","redroot pigweed; Postemergence, 125 g ai/ha",60
same,Pigweed plant response rating,redroot pigweed; [10],90
same,Pigweed plant response rating,redroot pigweed; [11],100
same,"Plant response rating, Pigweed","redroot pigweed; Preemergence, 500 g ai/ha",100
same,"Plant response rating, Crabgrass, Large","crabgrass; Postemergence, 125 g ai/ha",50
same,"Crabgrass, Large plant response rating",crabgrass; [10],90
same,"Crabgrass, Large plant response rating",crabgrass; [11],90
same,"Plant response rating, Crabgrass, Large","crabgrass; Preemergence, 500 g ai/ha",100
same,"Plant response rating, Sedge, Umbrella",umbrella sedge; [16],80
same,"Plant response rating, Sedge, Umbrella",umbrella sedge; [17],100
same,"Plant response rating, Morningglory","morningglory; Postemergence, 125 g ai/ha",50
same,Morningglory plant response rating,morningglory; [10],90
same,Morningglory plant response rating,morningglory; [11],70
same,"Plant response rating, Morningglory","morningglory; Preemergence, 500 g ai/ha",100
same,"Oat, Wild plant response rating",wild oat; [12],85
same,"Oat, Wild plant response rating",wild oat; [13],90
same,"Plant response rating, Oat, Wild",wild oat; [14],60
same,"Oat, Wild plant response rating",wild oat; [15],90
same,Sunflower plant response rating,[1]; [12],85
same,Sunflower plant response rating,[1]; [13],85
same,"Plant response rating, Sunflower",[1]; [14],40
same,Sunflower plant response rating,[1]; [15],100
same,Blackgrass plant response rating,blackgrass; [12],95
same,Blackgrass plant response rating,blackgrass; [13],95
same,"Plant response rating, Blackgrass",blackgrass; [14],60
same,Blackgrass plant response rating,blackgrass; [15],100
same,"Cupgrass, Woolly plant response rating",woolly cupgrass; [12],80
same,"Cupgrass, Woolly plant response rating",woolly cupgrass; [13],80
same,"Plant response rating, Cupgrass, Woolly",woolly cupgrass; [14],0
same,"Cupgrass, Woolly plant response rating",woolly cupgrass; [15],100
same,Ragweed plant response rating,common ragweed; [12],30
same,Ragweed plant response rating,common ragweed; [13],100
same,Ragweed plant response rating,common ragweed; [15],100
same,Wheat plant response rating,wheat; [12],40
same,Wheat plant response rating,wheat; [13],85
same,"Plant response rating, Wheat",wheat; [14],30
same,Wheat plant response rating,wheat; [15],95
